Source: ChEMBL document CHEMBL3507680, “University of Dundee, Gates Library screen for HepG2 cell viability”

Assay: Human HepG2 cell viability assay in 384 well format
Format: toxicity, cell-based
Set-up: dose 125 nL, time 70.5 hour; cytotoxicity at 70.5 h: concentration not given beside the values
Conditions: HepG2 cells, read-out: Inhibition

Compound | cytotoxicity at 70.5 h [%]
CNC(=O)CC1CC2(CCNCC2)c2cc(F)ccc21 (stereo not drawn) | -3.61
c1cncc(CN2CCn3cc(CN4CCCCC4)nc3C2)c1 | -5.48
O=S(=O)(C1CC1)N1CCc2ncnc(N3CCOCC3)c2CC1 | -7.75
CCOCC1c2c(ncn2C)CCN1C(=O)c1cscn1 (stereo not drawn) | 21.3
OCCN1CCC(F)(F)C2(CCN(c3cccnc3)C2)C1 (stereo not drawn) | -6.87
COCC(=O)NC1CC2(CCN(CCN(C)C)CC2)c2ccccc21 (stereo not drawn) | -2.09
O=C([C@H]1CCCO1)N1CC[C@H](O)[C@@H]1Cc1cccnc1 | -4.15
O=C(C1=CCCC1)N1C[C@@H]2COC[C@]2(COCC2CC2)C1 | -6.62
O=C(C1CC=CC1)N1CC[C@@H](O)[C@H]1Cc1cccnc1 | 1.93
CCO[C@H]1CC[C@H]2[C@H]1OCCN2C(=O)COc1ccccc1 | -4.98
O=C(c1cocn1)N1C[C@@H]2COC[C@]2(COc2cccnc2)C1 | -4.92
CC(C)CC(=O)N1CC[C@@H]2CN(Cc3cccnc3)S(=O)(=O)[C@@H]2CC1 | -4.78
CNC(=O)N1CC[C@@H]2CN(Cc3ccccc3)S(=O)(=O)[C@@H]2CC1 | -6.18
CN(C)CCN1CCO[C@@H]2CN(C(=O)Cc3ccsc3)CC[C@@H]2C1 | -8.58
COCC(=O)N1C[C@H](N(C)Cc2cncnc2)[C@H]2OCCC[C@H]21 | -8.78
Cn1ccc(-c2cc(C(=O)N3CCC(C(N)=O)CC3)c3ccccn23)n1 | -8.35
O=S(=O)(C1CC1)N1CCC2(COCc3cnc(-c4cccnc4)nc32)C1 (stereo not drawn) | -10.6
CS(=O)(=O)N1CCO[C@@H]2CN(C(=O)Cc3cccs3)CC[C@@H]2C1 | -9.17
O=C(CC1CC1)N1CCC2(COCc3cnc(-c4cccnc4)nc32)C1 (stereo not drawn) | -2.06
Cn1cccc1C(=O)N1C[C@@H]2C[C@@H](c3nnc(C4CC4)o3)O[C@@H]2C1 | -3.51
NC(=O)N1C[C@H](NC(=O)c2cscn2)[C@@H]2OCCC[C@@H]21 | -6.33
CS(=O)(=O)N1C[C@H](NC(=O)c2ccno2)[C@@H]2OCCC[C@@H]21 | -7.45
CN(Cc1cccnc1)[C@@H]1CN(C(=O)c2ccco2)[C@@H]2CCCO[C@H]12 | -10.7
Cn1cc(CN2CCC3(CC2)CN(c2cccnc2)C(=O)CO3)cn1 | -5.12
Cc1occc1C(=O)N1CC[C@H]2C[C@@H](c3nnc(C4CC4)o3)O[C@@H]2C1 | -12

Compound | cytotoxicity at 70.5 h [%]
O=C(c1cccs1)N1CC[C@H]2C[C@@H](c3nnc(C4CC4)o3)O[C@@H]2C1 | -7
Cn1ccc(-c2cc(C(=O)N3CCC(O)CC3)c3ccccn23)n1 | 29.8
CC(Cn1ccnc1)NCc1csc2c1CCCC2 (stereo not drawn) | -0.368
Cc1cc(C)n(Cc2cc(C(=O)N3CCCCC3c3nccs3)n[nH]2)n1 (stereo not drawn) | 8.98
CC(C)C1CN(c2ncccn2)CCC(=O)N1CC1CC1 (stereo not drawn) | 36.1
CSc1ccccc1NC(=O)CCC(=O)N(C)C1CCN(C)CC1 | -0.551
O=C(NCc1ccc(Cl)s1)c1cc(CN2CCCC(O)C2)on1 (stereo not drawn) | 19.4
COC(=O)c1ccc2ccn(CC3COCCO3)c(=O)c2c1 (stereo not drawn) | -8.18
Nc1ccnc(N2CCCC(CO)(Cc3cccc(Cl)c3)C2)n1 (stereo not drawn) | 6.17
CCc1noc(CNc2nc(-c3cccnc3)nc3c2CCNCC3)n1 | -14.3
COc1ccc(Cc2ncc3c(n2)CN(C(=O)CO)C3)cc1 | -6.42
Cc1nc(C(C)Nc2nc3c(s2)c(C)nn3C)n[nH]1 (stereo not drawn) | 15.8
CCN1CCC(CC(=O)NCC(O)c2ccc3ccccc3c2)CC1 (stereo not drawn) | 9.43
CCN(C)C(=O)c1ccc(N(C)Cc2cc(-c3ccncc3)no2)nc1 | -2.26
CC(C)Oc1cc(N2CCC(C(N)=O)CC2)nc(N)n1 | -3.58
CS(=O)(=O)Nc1ccc(-n2c(CCCO)nc3ccccc32)cn1 | 0.667
CCCn1ncc(C(=O)N2CCC(N3CCCCC3)CC2)c1C | -11.6
CCc1cnc(N2C[C@H]3C[C@H](C(=O)N4CCOCC4)[C@@H](C2)O3)nc1 | -6.74
Cc1ccccc1CN1C[C@@H]2COC[C@]2(CNC(=O)C2CCC2)C1 | -7.13
CO[C@H]1CN(CC2CC2)[C@@H]2CCCO[C@H]12 | -9.81
CCOCC1c2c(ncn2C)CCN1C(=O)c1cnc(C)cn1 (stereo not drawn) | -12
Cc1occc1C(=O)N1CCC2(CCN(C(=O)c3cccnc3)C2)CC1 | 5.51
COCC(=O)NCc1cc(=O)n2c(n1)CN(CC1CC1)CCC2 | 0.0162
COc1nn(C)c2c1CCCN(C(=O)c1cccc3cccnc13)C2 | -4.18
c1cc(COC[C@H]2CCC[C@]23CNCCO3)ccn1 | 0.216

Compound | cytotoxicity at 70.5 h [%]
O=C(COc1ccccc1)N1C[C@@H]2COC[C@]2(COc2cccnc2)C1 | 4.76
O=C(c1ccc(F)cc1)N1C[C@@H]2COC[C@]2(COc2cccnc2)C1 | 14.6
O=C(NC1CCCC1)[C@@H]1C[C@@H]2CCN(Cc3ccoc3)C[C@H]2O1 | -10
CC(C)N1CCO[C@@H]2CN(C(=O)Cc3cccs3)CC[C@@H]2C1 | -6.99
O=C([C@@H]1C[C@@H]2CCN(Cc3ccoc3)C[C@H]2O1)N1CCCC1 | -2.05
O=C(N1CCCC1)N1CCC2(CC1)CN(c1cccnc1)C(=O)CO2 | -6.88
c1cc(CN2CCO[C@H]3[C@H](OCC4CCOCC4)CC[C@@H]32)co1 | -9.4
O=C(N[C@@H]1CN(CC2CC2)[C@@H]2CCCO[C@@H]21)c1cscn1 | -1.52
CC(C)NC(=O)[C@@H]1C[C@@H]2CCN(Cc3ccoc3)C[C@H]2O1 | 0.151
O=C(NC1CC1)[C@@H]1C[C@@H]2CCN(Cc3ccoc3)C[C@@H]2O1 | -8.25
CS(=O)(=O)NCc1cn2c(n1)CN(Cc1cccnc1)CC2 | 9.87
CN(C)CCn1c2c(ccc1=O)CC(NCc1cnn(C)c1)CC2 (stereo not drawn) | -8.72
Cc1cccc(CN2C[C@H](OCc3ccccn3)[C@H]3COC[C@H]32)n1 | 5.07
Cn1ccnc1CN1CCC(F)(F)C2(CCN(c3cccnc3)C2)C1 (stereo not drawn) | -8.56
c1cncc(COC[C@@H]2CCC[C@]23CNCCO3)c1 | 0.77
Cc1ccc(CN2C[C@@H](OCc3ccccn3)[C@H]3COC[C@H]32)o1 | -5
Fc1ccc(CN2C[C@@H](OCc3ccccn3)[C@H]3COC[C@H]32)cc1 | -1.1
Cc1cccc(CN2CCC3(CC2)CN(c2cccnc2)C(=O)CO3)n1 | -4.77
c1cc(CO[C@H]2CC[C@H]3[C@H]2OCCN3Cc2nccs2)ccn1 | -2.27
Fc1ccc(CN2CCO[C@H]3[C@H](OCc4ccncc4)CC[C@@H]32)cc1 | 55.8
FC1(F)CCN(Cc2cccnc2)CC12CCN(c1ccccc1)C2 (stereo not drawn) | -1.56
c1ccc(CO[C@@H]2CN(Cc3cccnc3)[C@@H]3COC[C@@H]32)nc1 | 5.82
CN(C)CCN1CCC2(CC1)CN(Cc1cccnc1)C(=O)CO2 | -4.21
